# Measured values published in patent US8975241B2, “Composition for treating and preventing obesity including high water-soluble 2-hydroxypropyl-betacyclodextrin as effective component” (Song Ho Biomed Co., Ltd., priority 2009, dated 2015).
# What was measured:
# [1] = tested on: mouse model with obesity caused by a high fat diet; experiment: Change in body weight by autonomically drinking in mouse model with obesity caused by high fat diet; format: in vivo; conditions: 15% (w/v) in drinking water
# Protocol: (§1) Male C57BL/6J mice (Five age of the week, KRIBB, Korea) were accommodated for 1 week, and then were induced with obesity by giving a high fat diet (60% fat kcal, Research Diets) for 15 days. The weights of the animals that were induced with obesity were equally divided into 3 animals as one group. And then, the solvent-control group drank sterilized distilled water, autonomically. Hydroxypropyl-β-cyclodextrin (HPBCD) was dissolved in sterilized distilled water to be 10, 15, and 20% (W/V) concentrations for drinking autonomically. A change in body weight was daily measured to all of animals during the test; the fixed amount of feeds was provided at the day of measuring body weight, and then an amount of intake per a group (g/day) was calculated by measuring a residual amount of feeds at the next day. A change in body weight was measured during the test using α-cyclodextrin (α-CD) instead of 2-hydroxypropyl-β-cyclodextrin (HPBCD) in the same method as the above <Example 1>.
# [2] = tested on: mouse model with obesity caused by a high fat diet; experiment: Amount of feed intake by autonomically drinking in mouse model with obesity caused by high fat diet; format: in vivo; conditions: for Amount of Feed Intake: per group
# Protocol: as §1, with “day.” for “day. A change in body weight was measured during the test using α-cyclodextrin (α-CD) instead of 2-hydroxypropyl-β-cyclodextrin (HPBCD) in the same method as the above <Example 1>.”
# [3] = tested on: mouse model with obesity caused by a high fat diet; experiment: Weights of body fat and liver after autonomically drinking in mouse model with obesity caused by high fat diet; format: in vivo
# Protocol: The animals induced with obesity in the above <Example 1> drank autonomically HPBCD with 10, 15, and 20% (W/V) concentrations for 3 days and then their autopsies were conducted. The mice were killed by using CO2 gas; their abdomens were cut; their genital fats, intra-abdominal fats, and livers were isolated; then their weights were measured using a chemical balance; average weight of three animals was calculated.
# [4] = tested on: high fat diet-mouse; experiment: Amount of feed intake by oral administration in high fat diet-mouse; format: in vivo
# Protocol: Male C57BL/6J mice (Five age of the week, KRIBB, Korea) were accommodated for 1 week. And then, the weights of the animals were equally divided into 5 animals as one group. While a high fat diet (60% fat kcal) was provided, sterilized distilled water and HPBCDs with 10, 20, and 40% (W/V) were orally administered at three times (Morning, Afternoon, Evening) a day for 5 days in 0.2 ml per 20 g body weight of a mouse at the same time. A change in body weight was measured to all of the animals during the test at one time per day; the fixed amount of feeds was provided at the day of measuring body weight, and then an average amount of intake per an animal (g/mouse/day) was calculated by measuring a residual amount of feeds at the next day.
# [5] = tested on: high fat diet-mouse; experiment: Change of liver weight and body fat by oral administration in high fat diet-mouse; format: in vivo; conditions: oral for 5 days
# Protocol: […] The mice were killed by using CO2 gas; their abdomens were cut; their subcutaneous fats, genital fats, intra-abdominal fats, and livers were isolated; then their weights were measured using a chemical balance; average weight of five animals was calculated.
# [6] = Solubility in water; conditions: at 25° C.
# [7] = 10, 15, 20% (W/V) autonomically drinking
# [8] = 10% (w/v) in drinking water for 3 days
# [9] = 15% (w/v) in drinking water for 3 days
# [10] = 20% (w/v) in drinking water for 3 days
substance,measurement,setting,value
2-hydroxypropyl-β-cyclodextrin [HPBCD],Change in body weight (%),[1]; 1 Day,96.1 ± 1.1 %
same,Change in body weight (%),[1]; 3 Day,90.9 ± 2.3 %
same,Amount of Feed Intake,"[2]; 10% (w/v) in drinking water, 1 Day",3.9 g/day
same,Amount of Feed Intake,"[2]; 10% (w/v) in drinking water, 2 Day",3.9 g/day
same,Amount of Feed Intake,"[2]; 10% (w/v) in drinking water, 3 Day",2.7 g/day
same,appetite / dietary intake,[2]; [7],effect on suppressing appetite
same,Amount of Feed Intake,"[2]; 15% (w/v) in drinking water, 1 Day",4.1 g/day
same,Amount of Feed Intake,"[2]; 15% (w/v) in drinking water, 2 Day",4.5 g/day
same,Amount of Feed Intake,"[2]; 15% (w/v) in drinking water, 3 Day",4.0 g/day
same,Amount of Feed Intake,"[2]; 20% (w/v) in drinking water, 1 Day",4.2 g/day
same,Amount of Feed Intake,"[2]; 20% (w/v) in drinking water, 2 Day",4.2 g/day
same,Amount of Feed Intake,"[2]; 20% (w/v) in drinking water, 3 Day",2.6 g/day
same,Total Amount of Fat,[3]; [8],1615.0 ± 212.3 mg
same,Weight of Genital Fat,[3]; [8],594.0 ± 95.0 mg
same,Weight of Intra-abdominal Fat,[3]; [8],158.8 ± 36.3 mg
same,Weight of Liver,[3]; [8],999.3 ± 150.2 mg
same,Weight of Subcutaneous Fat,[3]; [8],862.2 ± 86.7 mg
same,weight of liver vs control group,[3]; [7],decreased depending on the concentrations
same,Total Amount of Fat,[3]; [9],1437.0 ± 282.0 mg
same,Weight of Genital Fat,[3]; [9],524.8 ± 67.1 mg
same,Weight of Intra-abdominal Fat,[3]; [9],147.2 ± 29.2 mg
same,Weight of Liver,[3]; [9],820.5 ± 66.0 mg
same,Weight of Subcutaneous Fat,[3]; [9],765.1 ± 238.8 mg
same,Total Amount of Fat,[3]; [10],1035.6 ± 324.3 mg
same,Weight of Genital Fat,[3]; [10],448.4 ± 108.6 mg
same,Weight of Intra-abdominal Fat,[3]; [10],97.8 ± 44.9 mg
same,Weight of Liver,[3]; [10],808.7 ± 76.8 mg
same,Weight of Subcutaneous Fat,[3]; [10],489.4 ± 183.5 mg
same,Amount of Feed Intake (g/mouse/day),"[4]; 10% (w/v) oral three times a day, 1 Day",3.0 ± 0.2 g/mouse/day
same,Amount of Feed Intake (g/mouse/day),"[4]; 10% (w/v) oral three times a day, 2 Day",2.8 ± 0.3 g/mouse/day
same,Amount of Feed Intake (g/mouse/day),"[4]; 10% (w/v) oral three times a day, 3 Day",2.9 ± 0.5 g/mouse/day
same,Amount of Feed Intake (g/mouse/day),"[4]; 10% (w/v) oral three times a day, 4 Day",2.7 ± 0.5 g/mouse/day
same,Amount of Feed Intake (g/mouse/day),"[4]; 10% (w/v) oral three times a day, 5 Day",2.7 ± 0.5 g/mouse/day
same,amount of dietary intake,"[4]; 10, 20, 40% (W/V) oral",temporary effect on decreasing an amount of dietary intake
same,Amount of Feed Intake (g/mouse/day),"[4]; 20% (w/v) oral three times a day, 1 Day",2.4 ± 0.4 g/mouse/day
same,Amount of Feed Intake (g/mouse/day),"[4]; 20% (w/v) oral three times a day, 2 Day",2.1 ± 0.4 g/mouse/day
same,Amount of Feed Intake (g/mouse/day),"[4]; 20% (w/v) oral three times a day, 3 Day",2.5 ± 0.4 g/mouse/day
same,Amount of Feed Intake (g/mouse/day),"[4]; 20% (w/v) oral three times a day, 4 Day",2.6 ± 0.2 g/mouse/day
same,Amount of Feed Intake (g/mouse/day),"[4]; 20% (w/v) oral three times a day, 5 Day",2.1 ± 0.4 g/mouse/day
same,Amount of Feed Intake (g/mouse/day),"[4]; 40% (w/v) oral three times a day, 1 Day",1.8 ± 0.5 g/mouse/day
same,Amount of Feed Intake (g/mouse/day),"[4]; 40% (w/v) oral three times a day, 2 Day",2.0 ± 0.5 g/mouse/day
same,Amount of Feed Intake (g/mouse/day),"[4]; 40% (w/v) oral three times a day, 3 Day",2.7 ± 0.6 g/mouse/day
same,Amount of Feed Intake (g/mouse/day),"[4]; 40% (w/v) oral three times a day, 4 Day",2.5 ± 0.3 g/mouse/day
same,Amount of Feed Intake (g/mouse/day),"[4]; 40% (w/v) oral three times a day, 5 Day",2.6 ± 0.3 g/mouse/day
same,Total Amount of Fat,[5]; 10% (w/v),1233.9 ± 244.8 mg
same,Weight of Genital Fat,[5]; 10% (w/v),473.3 ± 99.6 mg
same,Weight of Intra-abdominal Fat,[5]; 10% (w/v),113.0 ± 31.5 mg
same,Weight of Liver,[5]; 10% (w/v),1011.1 ± 33.5 mg
same,Weight of Subcutaneous Fat,[5]; 10% (w/v),647.6 ± 119.5 mg
same,Total Amount of Fat,[5]; 15% (w/v),795.8 ± 90.1 mg
same,Weight of Genital Fat,[5]; 15% (w/v),319.6 ± 46.5 mg
same,Weight of Liver,[5]; 15% (w/v),960.2 ± 44.6 mg
same,Weight of Subcutaneous Fat,[5]; 15% (w/v),411.3 ± 43.9 mg
same,Total Amount of Fat,[5]; 20% (w/v),666.9 ± 75.3 mg
same,Weight of Genital Fat,[5]; 20% (w/v),240.8 ± 45.5 mg
same,Weight of Intra-abdominal Fat,[5]; 20% (w/v),43.9 ± 9.3 mg
same,Weight of Liver,[5]; 20% (w/v),990.1 ± 35.1 mg
same,Weight of Subcutaneous Fat,[5]; 20% (w/v),382.1 ± 38.3 mg
same,weight of liver vs control group,[5],decreased depending on the concentrations
same,Solubility,[6],> 600 mg/mL
